Our source for the EC50 values is patent publication US8765730B2 (Hoffmann-La Roche Inc, priority 2010, dated 2014).

The term EC50 denotes the midpoint of the concentration-response curve. Low readings indicate a more potent agent, high ones a less potent agent.

The target of this assay is T1, human GPBAR1 receptor (Homo sapiens, UniProt Q8TDU6).
T1 construct: expressed in transfected cells
T1 sequence (Q8TDU6 1-330): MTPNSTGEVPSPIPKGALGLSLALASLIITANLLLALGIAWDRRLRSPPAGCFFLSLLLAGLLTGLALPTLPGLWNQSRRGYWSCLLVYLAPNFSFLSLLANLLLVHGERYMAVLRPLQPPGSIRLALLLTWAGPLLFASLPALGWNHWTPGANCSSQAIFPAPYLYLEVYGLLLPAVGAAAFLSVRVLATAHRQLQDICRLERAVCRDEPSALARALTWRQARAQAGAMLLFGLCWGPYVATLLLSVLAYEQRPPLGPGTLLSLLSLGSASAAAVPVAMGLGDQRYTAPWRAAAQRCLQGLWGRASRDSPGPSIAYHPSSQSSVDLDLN
Briefly: functional cAMP assay in CHO-dhfr(minus) cells expressing human GPBAR1 receptors. The assay is classed as cell-based. Particulars: human EC50, functional cAMP assay, 30 min at 30° C. In a few lines: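 Agonist cAMP read-out: stable GPBAR1 CHO-dhfr− clone, 30 min compound exposure at 30° C following 30 min IBMX (1 mM) preincubation in Krebs Ringer bicarbonate. Time-resolved energy-transfer detection gives EC50; parental CHO cells serve as counter-screen.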
On the technique in general: cAMP levels reflect the balance of adenylyl cyclase and phosphodiesterase activity.

The compound `Cc1cc(/C(C[C@@H](c2ccc(N3CCOCC3)cc2)c2ccccc2C)=N/O)ccn1` [Example 381, (S,E)-1-(2-Methylpyridin-4-yl)-3-(4-morpholinophenyl)-3-o-tolylpropan-1-one oxime] displayed an EC50 of 50 nM.

The compound `Cc1cc(/C(C[C@H](c2ccc(CC(=O)O)cc2)c2ccc(Cl)cc2C)=N/O)ccn1` [Example 382, {4-[(R)-1-(4-Chloro-2-methyl-phenyl)-3-[(E)-hydroxyimino]-3-(2-methyl-pyridin-4-yl)-propyl]-phenyl}-acetic acid] returned a half-maximal effective concentration (EC50) of 41 nM.

`Cc1cc(Cl)ccc1[C@H](C/C(=N\O)c1ccnc(CO)c1)c1ccc(Br)cc1` [Example 383, (R,E)-3-(4-Bromophenyl)-3-(4-chloro-2-methylphenyl)-1-(2-(hydroxymethyl)pyridin-4-yl)propan-1-one oxime]: the EC50 was 327 nM.

The compound `Cc1cc(Cl)ccc1[C@H](C/C(=N\O)c1cc[n+]([O-])c(C)c1)c1ccc(Br)cc1` [Example 384, (R,E)-4-(3-(4-Bromophenyl)-3-(4-chloro-2-methylphenyl)-1-(hydroxyimino)propyl)-2-methylpyridine 1-oxide] had an EC50 of 168 nM.

As to `Cc1cc(/C(=N/O)C(C)[C@H](c2ccc(Br)cc2)c2ccc(Cl)cc2C)ccn1` (stereo partly drawn) [Example 385, (3R,E)-3-(4-bromophenyl)-3-(4-chloro-2-methylphenyl)-2-methyl-1-(2-methylpyridin-4-yl)propan-1-one oxime], it took 698 nM to reach a half-maximal effect (EC50). Against the preceding compound, the EC50 is about 4.2-fold higher.

In the case of `Cc1cc(/C(C[C@H](c2ccc(Br)cc2)c2ccc(Cl)cc2C)=N/O)ccn1` [Example 386, (R,E)-3-(4-bromophenyl)-3-(4-chloro-2-methylphenyl)-1-(2-methylpyridin-4-yl)propan-1-one oxime], a half-maximal effect (EC50) was put at 169 nM.

As to `Cc1cc(/C(C[C@H](c2ccc(C3CCN(C(=O)OC(C)(C)C)CC3)cc2)c2ccc(Cl)cc2C)=N/O)ccn1` [Example 387, (R,E)-tert-Butyl 4-(4-(1-(4-chloro-2-methylphenyl)-3-(hydroxyimino)-3-(2-methylpyridin-4-yl)propyl)phenyl)piperidine-1-carboxylate], the response was half-maximal at 371 nM (EC50).

Take `Cc1cc(/C(C[C@H](c2ccc(C3CCNCC3)cc2)c2ccc(Cl)cc2C)=N/O)ccn1` [Example 388, (R,E)-3-(4-chloro-2-methylphenyl)-1-(2-methylpyridin-4-yl)-3-(4-(piperidin-4-yl)phenyl)propan-1-one oxime]: the EC50 was 172 nM.

For `Cc1cc(/C(C[C@H](c2ccc(C3CCN(S(C)(=O)=O)CC3)cc2)c2ccc(Cl)cc2C)=N/O)ccn1` [Example 389, (R,E)-3-(4-Chloro-2-methylphenyl)-1-(2-methylpyridin-4-yl)-3-(4-(1-(methylsulfonyl)-piperidin-4-yl)phenyl)propan-1-one oxime], a half-maximal response (EC50) required 33 nM.

As to `Cc1cc(/C(C[C@@H](c2ccccc2)c2ccc(Cl)cc2C)=N/O)ccn1` [Example 390, (S)-3-(4-Chloro-2-methyl-phenyl)-1-(2-methyl-pyridin-4-yl)-3-phenyl-propan-1-one oxime], the EC50 came to 53 nM.

Regarding `Cc1cc(/C(CC(c2cccc(S(C)(=O)=O)c2)c2ccccc2C)=N/O)ccn1` (stereo not shown) [Example 391, (E)-1-(2-methylpyridin-4-yl)-3-(3-(methylsulfonyl)phenyl)-3-o-tolylpropan-1-one oxime], the EC50 was 122 nM. This EC50 is about 2.3-fold higher than that of the compound before.

`Cc1cc(F)ccc1C(C/C(=N\O)c1ccc(=O)n(C)c1)c1ccc(-c2ccc(NC(=O)CCC(=O)O)cc2)cc1` (stereo not shown) [Example 392, N-{4′-[1-(4-Fluoro-2-methyl-phenyl)-3-[(E)-hydroxyimino]-3-(1-methyl-6-oxo-1,6-dihydro-pyridin-3-yl)-propyl]-biphenyl-4-yl}-succinamic acid] registered an EC50 of 54 nM.

Turning to `COC(=O)CC(=O)Nc1ccc(-c2ccc(C(C/C(=N\O)c3ccc(=O)n(C)c3)c3ccc(F)cc3C)cc2)cc1` (stereo not shown) [Example 399, N-{4′-[1-(4-Fluoro-2-methyl-phenyl)-3-[(E)-hydroxyimino]-3-(1-methyl-6-oxo-1,6-dihydro-pyridin-3-yl)-propyl]-biphenyl-4-yl}-malonamic acid methyl ester], the EC50 turned out to be 165 nM. This EC50 is about 3.1-fold higher than that of the compound before.
